Source: patent US10772866B2 (UNIVERSITY-INDUSTRY COOPERATION GROUP OF KYUNG HEE …, priority 2013, dated 2020)

System: CA1 neuron region of hippocampal tissue
Test: Crystal violet staining of CA1 neuron region of hippocampal tissue after transient global ischemia
Assay type: in vivo, CD1 mice
Conditions: mice after transient global ischemia; fluoxetine, vitamin C alone or together at trace amount; vs normal and negative control groups
Text: Eight-week old adult male CD1 mice with a weight of 33 g to 37 g were induced to be anesthetized by injecting with 2% isoflurane under an air condition, in which nitrous oxide and oxygen were in a 70:30 ratio, and the mice were induced to have transient global ischemia according to the previous disclosure while the mice were maintained in the anesthetized state with 1% isoflurane (Kim, D. H. et. al, 2009. Food Chem. Toxicol. 47, 1473-1479.). The thus-prepared mice with transient global ischemia put into cages (4 mice/cage) were given ad libitum access to water and foods, and bred in an environment of a constant temperature (23±1° C.) and continuous humidity (60±10%) under a 12 hour light/dark cycle.
Specifically, the brains obtained and stored by performing in the same manner as in <Example 6> were cut into 30 μm coronal plane sections, placed on gelatin-coated slides, stained with crystal violet, and dehydrated by adding 70%, 80%, 90%, and 100% alcohol in this order. Upon dehydration, xylene was added thereto, covered with coverslips, and the CA1 neuron region of hippocampal tissue was observed.

In the case of `CNCCC(Oc1ccc(C(F)(F)F)cc1)c1ccccc1` (centres unmarked) [fluoxetine], the “recovery of hippocampal tissue injury (CA1 neuron region, preserved cells, FIGS. 7 and 8)” value is reported as “a recovery similar to that of the negative control group”.
For `O=C1O[C@H]([C@@H](O)CO)C(O)=C1O` [vitamin C, ascorbic acid], the “recovery of hippocampal tissue injury (CA1 neuron region, preserved cells, FIGS. 7 and 8)” value was “a recovery similar to that of the negative control group”.
